Here are results for six compounds from US20240251792A1, “WEED CONTROL METHOD” (SYNGENTA CROP PROTECTION AG, priority 2021, published 2024).

The structures appear in SMILES notation. Read-outs that look alike come from different tables or passages of the source.

Holding throughout (format): in vivo
In one test the test system is weeds and/or crops. Nature of the test: Post-emergence biological efficacy (Table 4). Conditions: 312 h, 1000 g/ha, evaluated after 13 days. How it is done: (§1) Seeds of weeds and/or crops were sown in standard soil in pots. After cultivation for 14 days under controlled conditions in a glasshouse (at 24/19° C., day/night; 16 hours light), the plants were sprayed with an aqueous spray solution derived from the formulation of the technical active ingredient in a small amount of acetone and a special solvent and emulsifier mixture referred to as F50 (11.12% Emulsogen EL360 TM+44.44% N-methylpyrrolidone+44.44% Dowanol DPM glycol ether), to create a 50 g/l solution which was then diluted using 0.2% Genapol X080 as diluent to give the desired final dose of test compound.
(§2) The test plants were then grown under controlled conditions in the glasshouse (at 24/18° C., day/night; 15 hours light; 50% humidity) and watered twice daily. After 13 days the test was evaluated (100=total damage to plant; 0=no damage to plant).

Another test deals with ABUTH. The test is described as follows: Pre-emergence biological efficacy (Table 3). Conditions: Abutilon theophrasti, 312 h, after 13 days, read-out: evaluation (100=total damage to plant; 0=no damage to plant). Here is the method: as §1, with “one day” for “14 days”, “AMA” for “F50”
as §2

The subject of a further test is ZEAMX. Nature of the test: Pre-emergence biological efficacy (Table 3). Conditions: 312 h, 1000 g/ha, after 13 days, read-out: evaluation (100=total damage to plant; 0=no damage to plant). Here is the method:
as §1, with “one day” for “14 days”, “AMA” for “F50”
as §2

A further test relates to STEME. Nature of the test: Pre-emergence biological efficacy (Table 3). Conditions: 312 h, after 13 days, read-out: evaluation (100=total damage to plant; 0=no damage to plant). Here is the method:
as §1, with “one day” for “14 days”, “AMA” for “F50”
as §2

Another test relates to AMARE. Nature of the test: Pre-emergence biological efficacy (Table 3). Conditions: Amaranthus retroflexus, 312 h, 1000 g/ha, after 13 days, read-out: evaluation (100=total damage to plant; 0=no damage to plant). Here is the method: as §1, with “one day” for “14 days”, “AMA” for “F50”
as §2

The next test has as its system IPOHE. Nature of the test: Pre-emergence biological efficacy (Table 3). Conditions: Ipomoea hederacea, 312 h, 1000 g/ha, after 13 days, read-out: evaluation (100=total damage to plant; 0=no damage to plant). Here is the method:
as §1, with “one day” for “14 days”, “AMA” for “F50”
as §2

[1] abbreviates: STEME, read-out: damage to plant STEME (100=total damage; 0=no damage).
The mark [2] stands for this setting: ZEAMX, read-out: damage to plant ZEAMX (100=total damage; 0=no damage).
The mark [3] stands for this setting: Abutilon theophrasti, ABUTH, read-out: damage to plant ABUTH (100=total damage; 0=no damage).
Where [4] appears, read: Amaranthus retroflexus, AMARE, read-out: damage to plant AMARE (100=total damage; 0=no damage).
Where [5] appears, read: Ipomoea hederacea, IPOHE, read-out: damage to plant IPOHE (100=total damage; 0=no damage).

With `O=C(O)C(F)(F)c1cc(-c2ccc(F)cc2)ccc1Cl` [Compound 1-64, 2-(4-Chloro-4′-fluoro-[1,1′-biphenyl]-3-yl)-2,2-difluoroacetic acid], the pest or weed control at 1000 g/ha in the test with weeds and/or crops (setting [1]) is 0%; with weeds and/or crops (setting [2]), 40%; in the test with weeds and/or crops (setting [3]), 0%; with weeds and/or crops (setting [4]), 50%; in the test with weeds and/or crops (setting [5]), 50%; in the test on ABUTH, 0%. The pest or weed control at 1000 g/ha with STEME worked out at 0%; in the test on AMARE it was 0%; in the test on IPOHE it was 10%. Moreover, the plant injury at 1000 g/ha with ZEAMX stood at 10%.

For `CCOC(=O)C(F)(F)c1c(Cl)cccc1[N+](=O)[O-]` [Compound 3-67, Ethyl 2-(2-chloro-6-nitrophenyl)-2,2-difluoroacetate], the pest or weed control at 1000 g/ha was 0% with weeds and/or crops (setting [1]); 20% in the test on weeds and/or crops (setting [2]); 10% in the test on weeds and/or crops (setting [3]); 50% in the test on weeds and/or crops (setting [4]); 50% with weeds and/or crops (setting [5]); 0% in the test on ABUTH. Moreover, the pest or weed control at 1000 g/ha in the test on STEME was found to be 10%; with AMARE it was 10%; with IPOHE, 20%. Also, in the test on ZEAMX, the plant injury at 1000 g/ha came to 0%.

In the case of `COc1c(Cl)ccc(F)c1C(F)(F)C(=O)O` [Compound 7-325, 2-(3-Chloro-6-fluoro-2-methoxyphenyl)-2,2-difluoroacetic acid], the pest or weed control at 1000 g/ha worked out at 60% in the test on weeds and/or crops (setting [1]); 20% with weeds and/or crops (setting [2]); 50% in the test with weeds and/or crops (setting [3]); 60% in the test on weeds and/or crops (setting [4]); 50% in the test with weeds and/or crops (setting [5]); 20% in the test on ABUTH. For the same compound, the pest or weed control at 1000 g/ha stood at 30% with STEME, 50% in the test with AMARE and 50% in the test with IPOHE. For the same compound, in the test on ZEAMX, the plant injury at 1000 g/ha was 10%.

In the case of `O=C(O)C(F)(F)c1cc(Cl)c(Cl)cc1O` [Compound 1-298, 2-(4,5-Dichloro-2-hydroxy-phenyl)-2,2-difluoro-acetic acid], the pest or weed control at 1000 g/ha in the test on weeds and/or crops (setting [1]) came to 0%; with weeds and/or crops (setting [2]), 20%; with weeds and/or crops (setting [3]) it was 10%; in the test on weeds and/or crops (setting [4]), 10%; with weeds and/or crops (setting [5]), 10%; in the test with ABUTH, 0%. Besides, the pest or weed control at 1000 g/ha with STEME, in the test on AMARE and with IPOHE was 0% in each case. Besides, the plant injury at 1000 g/ha with ZEAMX came out at 0%.

Regarding `CSc1c(C(F)(F)C(=O)O)ccc(Br)c1Cl` [Compound 1-359, 2-(4-Bromo-3-chloro-2-methylsulfanyl-phenyl)-2,2-difluoro-acetic acid], the pest or weed control at 1000 g/ha came to 0% in the test with weeds and/or crops (setting [1]); 20% in the test on weeds and/or crops (setting [2]); 10% in the test on weeds and/or crops (setting [3]); 10% with weeds and/or crops (setting [4]); 10% with weeds and/or crops (setting [5]); 0% in the test on ABUTH. The pest or weed control at 1000 g/ha in the test on STEME came to 0%; in the test on AMARE, 10%; with IPOHE, 0%. In addition, in the test on ZEAMX, the plant injury at 1000 g/ha turned out to be 10%.

Turning to `CCOC(=O)C(F)(F)c1c(F)ccc(F)c1O` [Compound 3-297, Ethyl 2-(3,6-difluoro-2-hydroxyphenyl)-2,2-difluoroacetate], the pest or weed control at 1000 g/ha in the test with weeds and/or crops (setting [1]) was 0%; in the test with weeds and/or crops (setting [2]) it was 20%; in the test with weeds and/or crops (setting [3]) it was 10%; in the test on weeds and/or crops (setting [4]), 10%; with weeds and/or crops (setting [5]), 10%; with ABUTH, 0%. For the same compound, the pest or weed control at 1000 g/ha in the test on STEME, in the test on AMARE and in the test with IPOHE was 0% each time. Further, the plant injury at 1000 g/ha in the test with ZEAMX came to 0%.
